Data on 16 compounds can be found in patent US9409952B2, “Peptide-compound cyclization method” (Chugai Seiyaku Kabushiki Kaisha, priority 2011, dated 2016).

Positions of bridges follow the written chain, without caps; N, C: chain ends. Non-standard residues stand in square brackets, D forms with d. Residues, ends and D or L forms follow the SMILES beside them. *: point of attachment. NMeF = CN[C@@H](Cc1ccccc1)C(=O)O; NMeI = CC[C@H](C)[C@H](NC)C(=O)O; NMeL = CN[C@@H](CC(C)C)C(=O)O; NMeV = CN[C@H](C(=O)O)C(C)C; NMeA = CN[C@@H](C)C(=O)O; Piperidide = C1CCN(*)CC1; dNMeA = CN[C@H](C)C(=O)O; Sar = CNCC(=O)O; tBu = CC(C)(C)*

Data set [1] in a line: PAMPA (parallel artificial membrane permeability assay). It counts as in vitro ADME. The note with it: membrane permeation rate (Pe), 50 mM MOPSO buffer pH 6.5 with 5.0% glycocholic acid, 37° C., 18 hours; for Papp at 18 hours, 50 µM: PAMPA, read-out: iPAMPA Pe. The procedure, abridged: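 Artificial membrane was 10% (w/v) egg lecithin plus 0.5% (w/v) cholesterol in dodecane on a PVDF filter. A 10 mM DMSO stock was added at 0.5% (v/v) to donor buffer (50 mM MOPSO, pH 6.5, 5.0% glycocholic acid). After 18 h at 37 °C, LC/MS or LC/UV gave donor and acceptor levels for Pe.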
A general note: In PAMPA a lipid-coated filter parts donor from acceptor wells.

The nature of data set [2]: Metabolic stability in human hepatic microsome. It counts as in vitro ADME. The note with it: microsomes, pH 7.4; human hepatic microsome, NADPH(+); read-out: CL NADPH(+).

`CC(C)C[C@@H]1NC(=O)[C@H](Cc2ccccc2)N(C)C(=O)CN(C)C(=O)[C@H]([C@@H](C)O)NC(=O)[C@H](CC(C)C)N(C)C(=O)[C@H](C)NC(=O)C[C@@H](C(=O)N(C)[C@@H](Cc2ccccc2)C(=O)N(C)[C@@H](C)C(=O)N2CCC[C@H]2C(=O)N(C)[C@@H](Cc2ccccc2)C(=O)N[C@@H](C)C(=O)N2CCCCC2)NC1=O` [DP-565] (A[NMeL]T[Sar][NMeF]LD[NMeF][NMeA]P[NMeF]A-Piperidide; lactam N-7): in data set [1], the Papp at 18 hours, 50 µM is 18 ×10⁻⁶ cm/s. Also, the microsomal CLint at 1 uM in data set [2] amounted to 56 µL/min/mg.

For the compound `CC(C)C[C@@H]1NC(=O)[C@H](Cc2ccccc2)N(C)C(=O)CN(C)C(=O)[C@H]([C@@H](C)O)NC(=O)[C@H](CC(C)C)N(C)C(=O)[C@H](C)NC(=O)C[C@@H](C(=O)N(C)[C@@H](CC(C)C)C(=O)N[C@H](C(=O)N(C)[C@@H](C)C(=O)N[C@@H](C)C(=O)N2CCCCC2)C(C)C)NC1=O` [DP-566] (A[NMeL]T[Sar][NMeF]LD[NMeL]V[NMeA]A-Piperidide; lactam N-7), the Papp at 18 hours, 50 µM in data set [1] was found to be 11 ×10⁻⁶ cm/s. For the same compound, the microsomal CLint at 1 uM in data set [2] turned out to be 38 µL/min/mg.

Turning to `CC[C@H](C)[C@H](NC(=O)[C@H](Cc1ccccc1)N(C)C(=O)[C@@H]1CC(=O)N[C@@H](C)C(=O)N(C)[C@@H](CC(C)C)C(=O)N[C@@H]([C@@H](C)O)C(=O)N(C)CC(=O)N(C)[C@@H](Cc2ccccc2)C(=O)N[C@@H](CC(C)C)C(=O)N1)C(=O)N1CCCCC1` [DP-567] (A[NMeL]T[Sar][NMeF]LD[NMeF]I-Piperidide; lactam N-7), the Papp at 18 hours, 50 µM in data set [1] was determined as 30 ×10⁻⁶ cm/s. The microsomal CLint at 1 uM in data set [2] worked out at 224 µL/min/mg.

`CC[C@H](C)[C@@H]1NC(=O)[C@H](Cc2ccccc2)N(C)C(=O)[C@@H](C)NC(=O)C[C@@H](C(=O)N(C)[C@@H](CC(C)C)C(=O)NCC(=O)N(C)[C@@H](CC(C)C)C(=O)N[C@@H](C)C(=O)N2CCCCC2)NC(=O)[C@H](C(C)C)NC(=O)CN(C)C(=O)[C@H]([C@@H](C)O)NC1=O` [DP-568] ([dA][NMeF]IT[Sar]VD[NMeL]G[NMeL]A-Piperidide; lactam N-7): in data set [1], the Papp at 18 hours, 50 µM stood at 4.4 ×10⁻⁶ cm/s. Also, the microsomal CLint at 1 uM in data set [2] is 30 µL/min/mg.

On to `CC[C@H](C)[C@@H]1NC(=O)[C@H](Cc2ccccc2)N(C)C(=O)[C@@H](C)NC(=O)C[C@@H](C(=O)N(C)[C@@H](Cc2ccccc2)C(=O)N(C)[C@@H](Cc2ccccc2)C(=O)N[C@@H](C)C(=O)N2CCCCC2)NC(=O)[C@H](C(C)C)NC(=O)CN(C)C(=O)[C@H]([C@@H](C)O)NC1=O` [DP-569] ([dA][NMeF]IT[Sar]VD[NMeF][NMeF]A-Piperidide; lactam N-7), for which the Papp at 18 hours, 50 µM in data set [1] came out at 21 ×10⁻⁶ cm/s. The microsomal CLint at 1 uM in data set [2] worked out at 203 µL/min/mg.

For the compound `CC(C)C[C@H](NC(=O)CN(C)C(=O)[C@@H]1CC(=O)N[C@H](C)C(=O)N[C@@H](C(C)C)C(=O)N(C)[C@@H](Cc2ccccc2)C(=O)N(C)[C@@H](CC(C)C)C(=O)N(C)[C@@H](C)C(=O)N[C@@H]([C@@H](C)O)C(=O)N[C@@H](Cc2ccccc2)C(=O)N1)C(=O)N1CCCCC1` [DP-571] ([dA]V[NMeF][NMeL][NMeA]TFD[Sar]L-Piperidide; lactam N-8), the Papp at 18 hours, 50 µM in data set [1] is 23 ×10⁻⁶ cm/s. Further, in data set [2], the microsomal CLint at 1 uM is 62 µL/min/mg.

On to `CC[C@H](C)[C@H](NC(=O)[C@H](Cc1ccccc1)N(C)C(=O)[C@@H]1CC(=O)N[C@@H](C)C(=O)N[C@@H](CC(C)C)C(=O)N(C)[C@@H]([C@@H](C)CC)C(=O)N[C@@H](C(C)C)C(=O)N(C)[C@@H](Cc2ccccc2)C(=O)N[C@@H](CC(C)C)C(=O)N(C)[C@@H](Cc2ccccc2)C(=O)N1)C(=O)N1CCCCC1` [DP-573] (AL[NMeI]V[NMeF]L[NMeF]D[NMeF]I-Piperidide; lactam N-8), for which the “iPAMPA Pe” value in data set [1] was 1.0E−07. For the same compound, in data set [2], the microsomal CLint at 1 uM is 72 µL/min/mg.

For the compound `CC(C)C[C@@H]1NC(=O)[C@H](C)NC(=O)C[C@@H](C(=O)N(C)[C@@H](C)C(=O)N[C@H](C(=O)N(C)[C@@H](Cc2ccccc2)C(=O)N(C)[C@@H](CC(C)C)C(=O)N[C@@H](C)C(=O)N2CCCCC2)[C@@H](C)O)NC(=O)[C@H](Cc2ccccc2)N(C)C(=O)[C@H](CC(C)C)N(C)C(=O)[C@H](C)NC(=O)[C@H](Cc2ccccc2)N(C)C(=O)[C@H](CC(C)C)N(C)C1=O` [DP-574] (AL[NMeL][NMeF]A[NMeL][NMeF]D[NMeA]T[NMeF][NMeL]A-Piperidide; lactam N-8), the Papp at 18 hours, 50 µM in data set [1] was 1.2 ×10⁻⁶ cm/s. Also, the microsomal CLint at 1 uM in data set [2] is 113 µL/min/mg.

With `CC(C)C[C@@H](C(=O)N[C@@H](C)C(=O)N1CCCCC1)N(C)C(=O)[C@@H]1CC(=O)N[C@H](C(C)C)C(=O)N[C@@H]([C@@H](C)O)C(=O)N(C)[C@@H](C)C(=O)N(C)[C@@H](Cc2ccccc2)C(=O)N(C)[C@@H](Cc2ccccc2)C(=O)N[C@@H](COC(C)(C)C)C(=O)N(C)[C@@H](CC(C)C)C(=O)NCC(=O)N1` [DP-575] ([dV]T[NMeA][NMeF][NMeF]S(tBu)[NMeL]GD[NMeL]A-Piperidide; lactam N-9), in data set [1], the Papp at 18 hours, 50 µM stood at 28 ×10⁻⁶ cm/s. Further, the microsomal CLint at 1 uM in data set [2] came out at 70 µL/min/mg.

Regarding `CC[C@H](C)[C@H](NC(=O)[C@H](CC(C)C)N(C)C(=O)CN(C)C(=O)[C@@H]1CC(=O)N[C@H](C(C)C)C(=O)N[C@@H](C)C(=O)N[C@@H]([C@@H](C)O)C(=O)N(C)[C@@H](C)C(=O)N[C@@H](Cc2ccccc2)C(=O)N(C)[C@@H](CC(C)C)C(=O)N(C)[C@@H](Cc2ccccc2)C(=O)N(C)[C@@H](CC(C)C)C(=O)N1)C(=O)N1CCCCC1` [DP-576] ([dV]AT[NMeA]F[NMeL][NMeF][NMeL]D[Sar][NMeL]I-Piperidide; lactam N-9), in data set [1], the Papp at 18 hours, 50 µM turned out to be 15 ×10⁻⁶ cm/s. In data set [2], the microsomal CLint at 1 uM was 17 µL/min/mg.

As to `CC(C)C[C@H](NC(=O)[C@@H](NC(=O)[C@@H]1CCCN1C(=O)[C@@H]1CC(=O)N[C@H](C)C(=O)N(C)[C@@H](C)C(=O)N(C)[C@@H](Cc2ccccc2)C(=O)N(C)[C@@H](CC(C)C)C(=O)N[C@@H]([C@@H](C)O)C(=O)N(C)CC(=O)N(C)[C@@H](CC(C)C)C(=O)N[C@@H](COC(C)(C)C)C(=O)N(C)[C@@H](CC(C)C)C(=O)N1)C(C)C)C(=O)N1CCCCC1` [DP-579] ([dA][NMeA][NMeF][NMeL]T[Sar][NMeL]S(tBu)[NMeL]DPVL-Piperidide; lactam N-10), the Papp at 18 hours, 50 µM in data set [1] is 24 ×10⁻⁶ cm/s. In addition, the microsomal CLint at 1 uM in data set [2] came out at 19 µL/min/mg.

As to `CC[C@H](C)[C@@H]1NC(=O)[C@H](Cc2ccccc2)N(C)C(=O)[C@H](CC(C)C)NC(=O)[C@H](CC(C)C)NC(=O)[C@H](Cc2ccccc2)NC(=O)[C@H](CC(C)C)NC(=O)[C@@H](C)NC(=O)C[C@@H](C(=O)N(C)[C@@H](C)C(=O)N[C@@H](CC(C)C)C(=O)N[C@@H](C)C(=O)N[C@H](C(=O)N2CCCCC2)[C@@H](C)CC)NC(=O)[C@H](Cc2ccccc2)NC(=O)[C@H]([C@@H](C)O)NC1=O` [DP-580] ([dA]LFLL[NMeF]ITFD[NMeA]LAI-Piperidide; lactam N-10), in data set [1], the Papp at 18 hours, 50 µM was determined as 0.13 ×10⁻⁶ cm/s. The microsomal CLint at 1 uM in data set [2] was determined as 54 µL/min/mg.

In the case of `CC[C@H](C)[C@@H]1NC(=O)[C@H](CC(C)C)N(C)C(=O)CN(C)C(=O)[C@H](Cc2ccccc2)NC(=O)[C@H](C(C)C)N(C)C(=O)[C@H](C)N(C)C(=O)[C@H]([C@@H](C)O)NC(=O)[C@H](C)N(C)C(=O)C[C@@H](C(=O)N(C)[C@@H](CC(C)C)C(=O)N[C@H](C(=O)N(C)[C@@H](CC(C)C)C(=O)N[C@@H](C)C(=O)N2CCCCC2)[C@@H](C)O)NC(=O)[C@H](C)NC1=O` [DP-581] ([NMeA]T[NMeA][NMeV]F[Sar][NMeL]IAD[NMeL]T[NMeL]A-Piperidide; lactam N-10), in data set [1], the Papp at 18 hours, 50 µM came out at 2.7 ×10⁻⁶ cm/s. Besides, the microsomal CLint at 1 uM in data set [2] came to 7 µL/min/mg.

`CC(C)C[C@@H](C(=O)N[C@@H](C)C(=O)N1CCCCC1)N(C)C(=O)[C@H](C)N(C)C(=O)[C@@H]1CC(=O)N[C@H](C(C)C)C(=O)N(C)[C@@H](C)C(=O)N(C)[C@@H](CC(C)C)C(=O)N(C)[C@@H](CC(C)C)C(=O)N(C)CC(=O)N(C)[C@@H](Cc2ccccc2)C(=O)N[C@@H](C)C(=O)N(C)[C@@H](Cc2ccccc2)C(=O)N(C)[C@@H](CC(C)C)C(=O)N[C@@H]([C@@H](C)O)C(=O)N1` [DP-582] ([dV][NMeA][NMeL][NMeL][Sar][NMeF]A[NMeF][NMeL]TD[NMeA][NMeL]A-Piperidide; lactam N-11): the Papp at 18 hours, 50 µM in data set [1] is 21 ×10⁻⁶ cm/s. The microsomal CLint at 1 uM in data set [2] stood at 12 µL/min/mg.

On to `CC[C@H](C)[C@@H](C(=O)N[C@@H](Cc1ccccc1)C(=O)N1CCCCC1)N(C)C(=O)[C@@H]1CC(=O)N(C)[C@H](C)C(=O)N(C)[C@@H](CC(C)C)C(=O)N[C@@H](Cc2ccccc2)C(=O)N[C@@H]([C@@H](C)O)C(=O)N(C)CC(=O)N(C)[C@@H](C)C(=O)N(C)[C@@H](C(C)C)C(=O)N[C@@H](C)C(=O)N(C)[C@@H](CC(C)C)C(=O)N[C@@H](CC(C)C)C(=O)N1` [DP-583] ([dNMeA][NMeL]FT[Sar][NMeA][NMeV]A[NMeL]LD[NMeI]F-Piperidide; lactam N-11), for which the Papp at 18 hours, 50 µM in data set [1] worked out at 25 ×10⁻⁶ cm/s. In addition, the microsomal CLint at 1 uM in data set [2] is 27 µL/min/mg.

`CC[C@H](C)[C@H](NC(=O)[C@H](C)N(C)C(=O)[C@@H]1CC(=O)N[C@H](C(C)C)C(=O)N(C)[C@@H](C)C(=O)N(C)[C@@H](CC(C)C)C(=O)N(C)[C@@H](CC(C)C)C(=O)N(C)CC(=O)N(C)[C@@H](Cc2ccccc2)C(=O)N[C@@H](C)C(=O)N(C)[C@@H](Cc2ccccc2)C(=O)N(C)[C@@H](CC(C)C)C(=O)N[C@@H]([C@@H](C)O)C(=O)N1)C(=O)N1CCCCC1` [DP-584] ([dV][NMeA][NMeL][NMeL][Sar][NMeF]A[NMeF][NMeL]TD[NMeA]I-Piperidide; lactam N-11): the Papp at 18 hours, 50 µM in data set [1] came to 18 ×10⁻⁶ cm/s. In data set [2], the microsomal CLint at 1 uM was 20 µL/min/mg.
